Experimental data reported in ChEMBL document CHEMBL3797052 (Eur J Med Chem, 2016).

System: not listed separately
Test: Antiproliferative activity against human RPMI8226 cells assessed as growth inhibition after 48 hrs by sulforhodamine B assay
Format: functional
Details: RPMI-8226, 48 h
Work on CNC(=O)c1cc(Oc2ccc3nc(NC(=O)c4cc(C(F)(F)F)cc(C(F)(F)F)c4)sc3c2)ccn1 yielded an LC50 greater than 100 µM and a TGI greater than 100 µM.

System: MDA-MB-231
Test: Antiproliferative activity against human MDA-MB-231 cells assessed as growth inhibition after 48 hrs by sulforhodamine B assay
Format: functional
Details: MDA-MB-231, 48 h
Work on CNC(=O)c1cc(Oc2ccc3nc(NC(=O)c4cc(C(F)(F)F)cc(C(F)(F)F)c4)sc3c2)ccn1 yielded a GI50 of 2.88 µM and a TGI of 6.63 µM.

Same assay, conditions: MDA-MB-231, 48 h, read-out: LC50 (the source's name)
CNC(=O)c1cc(Oc2ccc3nc(NC(=O)c4cc(C(F)(F)F)cc(C(F)(F)F)c4)sc3c2)ccn1 showed a CC50 of 39.8 µM.

System: not listed separately
Test: Antiproliferative activity against human Hs 578T cells assessed as growth inhibition after 48 hrs by sulforhodamine B assay
Format: functional
Details: not given
CNC(=O)c1cc(Oc2ccc3nc(NC(=O)c4cc(C(F)(F)F)cc(C(F)(F)F)c4)sc3c2)ccn1 gave a GI50 of 3.15 µM and a TGI of 13.3 µM.

Same assay, conditions: read-out: LC50 (the source's name)
CNC(=O)c1cc(Oc2ccc3nc(NC(=O)c4cc(C(F)(F)F)cc(C(F)(F)F)c4)sc3c2)ccn1 gave a CC50 greater than 100 µM.

Biological target: CYP2C9 (Homo sapiens, UniProt P11712)
Sequence (P11712 whole entry): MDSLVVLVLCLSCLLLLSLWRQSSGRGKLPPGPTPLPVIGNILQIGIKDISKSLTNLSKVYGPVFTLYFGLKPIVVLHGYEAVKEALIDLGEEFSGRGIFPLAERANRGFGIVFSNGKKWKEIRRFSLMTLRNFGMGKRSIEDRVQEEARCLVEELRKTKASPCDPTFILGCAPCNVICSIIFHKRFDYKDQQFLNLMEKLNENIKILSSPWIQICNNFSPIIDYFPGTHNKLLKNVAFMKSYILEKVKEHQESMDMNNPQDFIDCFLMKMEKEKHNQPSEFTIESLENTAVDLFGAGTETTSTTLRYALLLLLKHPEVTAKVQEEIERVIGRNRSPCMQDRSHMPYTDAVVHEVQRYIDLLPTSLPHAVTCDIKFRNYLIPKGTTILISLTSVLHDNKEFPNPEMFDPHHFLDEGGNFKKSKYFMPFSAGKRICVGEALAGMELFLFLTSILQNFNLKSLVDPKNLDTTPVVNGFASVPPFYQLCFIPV
Test: Inhibition of recombinant human CYP2C9 assessed as remaining enzyme activity using CYP2C9 green as substrate at 10 uM after 5 mins in presence of NADP by fluorescence plate reader analysis
Format: ADME
Details: recombinant human CYP2C9, probe CYP2C9 green, read-out: Activity
Compound CNC(=O)c1cc(Oc2ccc3nc(NC(=O)c4cc(C(F)(F)F)cc(C(F)(F)F)c4)sc3c2)ccn1 has an activity at 5 min, 10 µM of 32.7%.

System: NCI-H322M
Test: Antiproliferative activity against human NCI-H322M cells assessed as cell growth at 10^-8 M after 48 hrs by sulforhodamine B assay
Format: functional
Details: read-out: Activity
CNC(=O)c1cc(Oc2ccc3nc(NC(=O)c4cc(C(F)(F)F)cc(C(F)(F)F)c4)sc3c2)ccn1 showed a growth at 0.01 µM of 91%.

System: not listed separately
Test: Antiproliferative activity against human SF295 cells assessed as cell growth at 10^-8 M after 48 hrs by sulforhodamine B assay
Format: functional
Details: SF-295, 48 h, read-out: Activity
CNC(=O)c1cc(Oc2ccc3nc(NC(=O)c4cc(C(F)(F)F)cc(C(F)(F)F)c4)sc3c2)ccn1 showed a growth at 0.01 µM of 93%.

System: not listed separately
Test: Antiproliferative activity against human SNB19 cells assessed as cell growth at 10^-8 M after 48 hrs by sulforhodamine B assay
Format: functional
Details: SNB-19, 48 h, read-out: Activity
With CNC(=O)c1cc(Oc2ccc3nc(NC(=O)c4cc(C(F)(F)F)cc(C(F)(F)F)c4)sc3c2)ccn1 the growth at 0.01 µM was 98%.

System: not listed separately
Test: Antiproliferative activity against human HL-60(TB) cells assessed as cell growth at 10^-6 M after 48 hrs by sulforhodamine B assay
Format: functional
Details: HL-60, 48 h, read-out: Activity
CNC(=O)c1cc(Oc2ccc3nc(NC(=O)c4cc(C(F)(F)F)cc(C(F)(F)F)c4)sc3c2)ccn1 gave a growth at 1 µM of 114%.

System: NCI-H23
Test: Antiproliferative activity against human NCI-H23 cells assessed as cell growth at 10^-6 M after 48 hrs by sulforhodamine B assay
Format: functional
Details: NCI-H23, 48 h, read-out: Activity
Work on CNC(=O)c1cc(Oc2ccc3nc(NC(=O)c4cc(C(F)(F)F)cc(C(F)(F)F)c4)sc3c2)ccn1 yielded a growth at 1 µM of 89%.

System: not listed separately
Test: Antiproliferative activity against human SW620 cells assessed as cell growth at 10^-6 M after 48 hrs by sulforhodamine B assay
Format: functional
Details: SW-620, 48 h, read-out: Activity
Work on CNC(=O)c1cc(Oc2ccc3nc(NC(=O)c4cc(C(F)(F)F)cc(C(F)(F)F)c4)sc3c2)ccn1 yielded a growth at 1 µM of 105%.

System: not listed separately
Test: Antiproliferative activity against human SNB19 cells assessed as cell growth at 10^-6 M after 48 hrs by sulforhodamine B assay
Format: functional
Details: SNB-19, 48 h, read-out: Activity
With CNC(=O)c1cc(Oc2ccc3nc(NC(=O)c4cc(C(F)(F)F)cc(C(F)(F)F)c4)sc3c2)ccn1 the growth at 1 µM was 96%.

System: not listed separately
Test: Antiproliferative activity against human RPMI8226 cells assessed as cell growth at 10^-4 M after 48 hrs by sulforhodamine B assay
Format: functional
Details: RPMI-8226, 48 h, read-out: Activity
CNC(=O)c1cc(Oc2ccc3nc(NC(=O)c4cc(C(F)(F)F)cc(C(F)(F)F)c4)sc3c2)ccn1 showed a growth at 100 µM of 15%.

System: NCI-H322M
Test: Antiproliferative activity against human NCI-H322M cells assessed as cell growth at 10^-4 M after 48 hrs by sulforhodamine B assay
Format: functional
Details: read-out: Activity
CNC(=O)c1cc(Oc2ccc3nc(NC(=O)c4cc(C(F)(F)F)cc(C(F)(F)F)c4)sc3c2)ccn1 showed a growth at 100 µM of -42%.

System: not listed separately
Test: Antiproliferative activity against human HCT116 cells assessed as cell growth at 10^-4 M after 48 hrs by sulforhodamine B assay
Format: functional
Details: HCT-116, 48 h, read-out: Activity
In the case of CNC(=O)c1cc(Oc2ccc3nc(NC(=O)c4cc(C(F)(F)F)cc(C(F)(F)F)c4)sc3c2)ccn1, the growth at 100 µM is reported as -84%.

System: not listed separately
Test: Antiproliferative activity against human SF268 cells assessed as cell growth at 10^-4 M after 48 hrs by sulforhodamine B assay
Format: functional
Details: SF-268, 48 h, read-out: Activity
CNC(=O)c1cc(Oc2ccc3nc(NC(=O)c4cc(C(F)(F)F)cc(C(F)(F)F)c4)sc3c2)ccn1 gave a growth at 100 µM of -37%.

System: not listed separately
Test: Antiproliferative activity against human SNB75 cells assessed as cell growth at 10^-4 M after 48 hrs by sulforhodamine B assay
Format: functional
Details: SNB-75, 48 h, read-out: Activity
In the case of CNC(=O)c1cc(Oc2ccc3nc(NC(=O)c4cc(C(F)(F)F)cc(C(F)(F)F)c4)sc3c2)ccn1, the growth at 100 µM is reported as -51%.

System: not listed separately
Test: Antiproliferative activity against human SKOV3 cells assessed as cell growth at 10^-8 M after 48 hrs by sulforhodamine B assay
Format: functional
Details: SK-OV-3, 48 h, read-out: Activity
Work on CNC(=O)c1cc(Oc2ccc3nc(NC(=O)c4cc(C(F)(F)F)cc(C(F)(F)F)c4)sc3c2)ccn1 yielded a growth at 0.01 µM of 100%.

System: A498
Test: Antiproliferative activity against human A498 cells assessed as cell growth at 10^-8 M after 48 hrs by sulforhodamine B assay
Format: functional
Details: A498, 48 h, read-out: Activity
CNC(=O)c1cc(Oc2ccc3nc(NC(=O)c4cc(C(F)(F)F)cc(C(F)(F)F)c4)sc3c2)ccn1 showed a growth at 0.01 µM of 69%.

System: SK-MEL-5
Test: Antiproliferative activity against human SK-MEL-5 cells assessed as cell growth at 10^-6 M after 48 hrs by sulforhodamine B assay
Format: functional
Details: SK-MEL-5, 48 h, read-out: Activity
Work on CNC(=O)c1cc(Oc2ccc3nc(NC(=O)c4cc(C(F)(F)F)cc(C(F)(F)F)c4)sc3c2)ccn1 yielded a growth at 1 µM of 83%.

System: not listed separately
Test: Antiproliferative activity against human OVCAR3 cells assessed as cell growth at 10^-6 M after 48 hrs by sulforhodamine B assay
Format: functional
Details: OVCAR-3, 48 h, read-out: Activity
CNC(=O)c1cc(Oc2ccc3nc(NC(=O)c4cc(C(F)(F)F)cc(C(F)(F)F)c4)sc3c2)ccn1 gave a growth at 1 µM of 90%.

System: MDA-MB-435
Test: Antiproliferative activity against human MDA-MB-435 cells assessed as cell growth at 10^-4 M after 48 hrs by sulforhodamine B assay
Format: functional
Details: MDA-MB-435, 48 h, read-out: Activity
CNC(=O)c1cc(Oc2ccc3nc(NC(=O)c4cc(C(F)(F)F)cc(C(F)(F)F)c4)sc3c2)ccn1 showed a growth at 100 µM of -15%.

System: 786-0
Test: Antiproliferative activity against human 786-0 cells assessed as cell growth at […] after 48 hrs by sulforhodamine B assay
Format: functional
Details: 786-0, 48 h, read-out: Activity
In the case of CNC(=O)c1cc(Oc2ccc3nc(NC(=O)c4cc(C(F)(F)F)cc(C(F)(F)F)c4)sc3c2)ccn1, the growth at 100 µM is reported as -71%.

System: not listed separately
Test: Antiproliferative activity against human TK10 cells assessed as cell growth at 10^-4 M after 48 hrs by sulforhodamine B assay
Format: functional
Details: TK-10, 48 h, read-out: Activity
Compound CNC(=O)c1cc(Oc2ccc3nc(NC(=O)c4cc(C(F)(F)F)cc(C(F)(F)F)c4)sc3c2)ccn1 has a growth at 100 µM of -58%.
